Test results taken from patent publication EP4818177A1, “TRICYCLIC DERIVATIVE INHIBITOR, AND PREPARATION METHOD AND USE THEREFOR” (Shanghai Hansoh Biomedical Co., Ltd., priority 2023, dated 2025).
pIC50: −log10 of the molar value.

How the values were obtained:
[1] = target: T1, PRMT5/MEP50-MTA protein complex (Homo sapiens, UniProt O14744); test: Thermal shift assay: change in melting temperature of the PRMT5/MEP50-MTA protein complex; type: binding; settings: compound 8 µM, PRMT5/MEP50 2 µM, MTA 2 µM; Tm minus DMSO vehicle control
T1 construct: purchased Viva Biotech
From the text: Test Example 1: Determination of the ability of the compounds of the present invention to improve the thermal stability (melting temperature) of the PRMT5/MEP50-MTA protein complex.
1. Experimental objective: The objective of this test example is to determine the ability of the compound to improve the thermal stability of the PRMT5/MEP50-MTA protein complex, resulting in an increase in the protein melting temperature. 2. Experimental instruments: Quantitative PCR instrument (Quantstudio6 Flex) was purchased from Life Technologies; pipettes were purchased from Eppendorf or Rainin. 3. Experimental reagents and consumables: PRMT5/MEP50 protein was prepared by Viva Biotech; HEPES was purchased from Thermo Fisher Scientific (Cat. No. 15630080); DTT was purchased from Sigma (Cat. No. 43816-10ml); sodium chloride was purchased from Invitrogen (Cat. No. AM9760G); Protein Thermal Shift™ Dye Kit was purchased from Thermo Fisher Scientific (Cat. No. 4461146); methylthioadenosine (MTA) was purchased from Sigma (Cat. No. D5011). 4. Experimental methods: In this experiment, the thermal shift method was used to measure the change in the melting temperature (Tm) of the PRMT5/MEP50-MTA protein complex before and after compound binding, thereby characterising the ability of the compound to improve the thermal stability of the PRMT5/MEP50-MTA protein complex. A solution containing 50 mM HEPES, 10 mM DTT, 2 µM MTA, SYPRO Orange and 250 mM NaCl was prepared as the experimental buffer. Human PRMT5/MEP50 protein was added to a final concentration of 2 µM, and the mixture was incubated at room temperature for 30 minutes. The above reaction mixture was aliquoted into 8-strip PCR tubes at 19.5 µL per tube. Then 0.5 µL of test compound or DMSO was added to each tube, providing a total reaction volume of 20 µL and a final compound concentration of 8 µM. 2.5% DMSO was set as the vehicle control. After incubation at room temperature for 10 minutes, the PCR tubes were placed in a PCR instrument, and the melt curve function was selected to measure the melting temperature of the PRMT5/MEP50-MTA protein complex in different treatment groups (heated from 25°C to 95°C, 0.03°C/s). 5. Experimental data processing method: The experimental data files from the PCR instrument were imported into the thermal shift software to obtain the melting temperature (Tm) for each treatment group.

[2] = test system: MTAP Knockout HCT116 cells; test: Cell proliferation inhibition (CellTiter-Glo), MTAP knockout cells; type: cell-based; settings: for Selectivity: HCT116 versus MTAP Knockout HCT116; for pIC50: Homo sapiens, HCT-116, MTAP Knockout HCT116 cells, 72-240 hours incubation, CellTiter-Glo
From the text: (§1) Test Example 2: Determination of the inhibitory effect of the compounds of the present invention on the proliferation activity of HCT116 and MTAP Knockout HCT116 cells.
(§2) 1. Experimental objective: to determine the inhibitory effect of the compound on the proliferation activity of HCT116 wild-type and HCT116 MTAP knockout cells. 2. Experimental instruments: Centrifuge (Eppendorf 5810R); microplate reader (BioTek Synergy H1 or PerkinElmer Envision); pipette (Eppendorf or Rainin). 3. Experimental reagents: HCT116 and MTAP Knockout HCT116 cells were purchased from Nanjing Cobioer; Cell Titer-Glo was purchased from Promega (Cat. No. G7573); McCoy' 5A was purchased from Gibco (Cat. No. 12330031); FBS was purchased from Gibco (Cat. No. 10091148); PBS was purchased from Gibco (Cat. No. 10010023); trypsin was purchased from Gibco (Cat. No. 25200056); cell culture plates were purchased from Corning (Cat. No. 3610). 4. Experimental methods: HCT116 and MTAP Knockout HCT116 cells were cultured in McCoy'5A medium containing 10% FBS until an appropriate cell density was reached. The cells were then collected and adjusted to a suitable concentration using complete medium. The cell suspension was seeded into a 96-well plate at 90 µL per well and allowed to adhere overnight in a 37°C, 5% CO2 incubator. Compound solutions of various concentrations were prepared using DMSO and culture medium, with a vehicle control set. The compound solutions were added to the 96-well plate at 10 µL per well, and the plate was incubated in a 37°C, 5% CO2 incubator for an additional 72-240 hours. After incubation, CellTiter-Glo solution was added, and the mixture was mixed uniformly by shaking, followed by incubation in the dark for 10 to 30 minutes. Luminescence was measured using a Synergy H1 or Envision microplate reader. 5. Experimental data processing method: The inhibition rate was calculated using the luminescence signal values, and the concentrations along with the inhibition rates were subjected to non-linear regression curve fitting using Graphpad Prism software to obtain the IC50 values.

[3] = test system: HCT116 wild-type cells; test: Cell proliferation inhibition (CellTiter-Glo), wild-type cells; type: cell-based; settings: Homo sapiens, HCT-116, HCT116 wild-type cells, 72-240 hours incubation
From the text: as §1, §2

[4] = Pharmacokinetics in rats (plasma) after oral administration; settings: male, SD, rat, 5 mg/kg
Protocol: Test Example 4: Determination of the pharmacokinetics of the compounds of the present invention in rats (plasma) after oral administration.
Study objective: SD rats were used as test animals to study the pharmacokinetic behaviour of the following example compounds in rats (plasma) after oral administration at a dose of 5 mg/kg. […] Test scheme 2.1 Test drugs: Vehicle formula: 0.5% CMC-Na (1% Tween 80); the examples of the present invention, prepared in house. 2.2 Test animals: 3 SD rats per group, male, purchased from Shanghai Bikai Keyi Biotechnology Co., Ltd., with animal license number (SCXK (Shanghai) 2018-0006, No.20180006037467). 2.3 Administration: 3 SD rats per group, male, were fasted overnight and then respectively administered PO at a dose of 5 mg/kg and a volume of 10 mL/kg. 2.4 Sample collection: 0.2 mL of blood was collected from the jugular vein of rats before administration and at 0, 0.25, 0.5, 1, 2, 4, 6, 8 and 24 h after administration, and placed in EDTA-K2test tubes, and the test tubes were centrifuged at 6,000 rpm at 4°C for 6 min to separate the plasma, which was stored at -80°C. The animals were fed 4 h after administration. 2.5 Sample treatment • 1) 160 uL of acetonitrile was added to 40 uL of plasma sample for precipitation, and after mixing, the mixture was centrifuged at 3,500 × g for 5-20 minutes. • 2) 100 uL of the treated supernatant solution was taken for LC/MS/MS analysis to determine the concentration of the test compounds. 2.6 Liquid phase analysis • Liquid phase conditions: Shimadzu LC-20AD pump; • Mass spectrometry conditions: AB Sciex API 4000 mass spectrometer; • Chromatographic column: phenomenex Gemiu 5 um C18 50 × 4.6 mm; • Mobile phase: solution A: 0.1% formic acid in water, solution B: methanol; • flow rate: 1.0 mL/min; Elution time: 0-4.0 min, with eluents as follows:
Experimental results and analysis: The main pharmacokinetic parameters were calculated using WinNonlin 8.2.

T1 sequence (O14744 whole entry): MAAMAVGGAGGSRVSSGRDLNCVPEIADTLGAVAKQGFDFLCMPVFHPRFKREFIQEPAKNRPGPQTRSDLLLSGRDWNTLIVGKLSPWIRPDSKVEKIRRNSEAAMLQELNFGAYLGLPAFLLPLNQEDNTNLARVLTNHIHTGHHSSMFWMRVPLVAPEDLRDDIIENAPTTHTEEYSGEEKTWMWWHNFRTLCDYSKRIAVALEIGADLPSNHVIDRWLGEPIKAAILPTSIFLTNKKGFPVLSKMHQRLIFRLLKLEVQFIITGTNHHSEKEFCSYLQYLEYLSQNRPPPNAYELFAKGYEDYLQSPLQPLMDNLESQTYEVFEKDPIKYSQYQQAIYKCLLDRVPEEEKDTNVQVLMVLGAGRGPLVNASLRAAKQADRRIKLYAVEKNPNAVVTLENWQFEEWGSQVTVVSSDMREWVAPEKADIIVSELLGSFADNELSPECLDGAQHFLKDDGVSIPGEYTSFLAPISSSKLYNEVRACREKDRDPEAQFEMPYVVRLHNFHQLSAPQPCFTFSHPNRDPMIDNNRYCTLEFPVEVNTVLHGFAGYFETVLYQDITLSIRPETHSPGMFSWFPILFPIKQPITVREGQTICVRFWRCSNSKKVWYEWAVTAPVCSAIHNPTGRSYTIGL
T1 sequence (Q9BQA1 whole entry partner): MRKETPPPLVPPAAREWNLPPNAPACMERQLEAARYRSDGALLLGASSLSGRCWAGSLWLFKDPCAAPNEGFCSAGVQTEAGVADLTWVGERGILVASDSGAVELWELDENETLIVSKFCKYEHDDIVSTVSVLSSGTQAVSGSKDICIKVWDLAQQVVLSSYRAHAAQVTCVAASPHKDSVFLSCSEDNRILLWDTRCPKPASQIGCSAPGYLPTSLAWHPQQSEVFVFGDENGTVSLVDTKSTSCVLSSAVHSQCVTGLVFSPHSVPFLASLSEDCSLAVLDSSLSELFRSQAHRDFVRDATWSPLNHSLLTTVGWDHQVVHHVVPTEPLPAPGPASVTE

Row | SMILES | ΔTm at 8 µM [1] [°C] | Selectivity [2] | pIC50 [2] | pIC50 [3] | also measured
1 | CNN(C(=O)c1ccc2nc(N)c3cnn(C)c3c2c1)C1COCc2nc(C(F)(F)F)ccc21 (racemic) [Example 301, 4-Amino-N',1-dimethyl-N-[2-(trifluoromethyl)-6,8-dihydro-5H-pyrano[3,4-b]pyridin-5-yl]pyrazolo[4,3-c]quinoline-8-hydrazide] | 11.6 | 94 | 7.85 | 5.87 | –
2 | CN(C(=O)c1ccc2nc(N)c3cnn(C)c3c2c1)C1COCc2c1ccn1cc(Br)nc21 (stereo not shown) [Example 37, 4-Amino-N-(2-bromo-7,10-dihydro-8H-imidazo[1,2-a]pyrano[3,4-c]pyridin-7-yl)-N,1-dimethyl-1H-pyrazolo [4,3-c] quinoline-8-carboxamide] | 11.3 | 166 | 8.04 | 5.82 | –
3 | Cc1cc2nc(N)c3cncn3c2cc1C(=O)N(C)[C@@H]1COCc2c1ccn1cc(C(F)(F)F)nc21 [Example 39-P1, (S)-4-amino-N,7-dimethyl-N-(2-(trifluoromethyl)-7,10-dihydro-8H-imidazo[1,2-a]pyrano[3,4-c]pyridin-7-yl)imidazo[1,5-a]quinoxaline-8-carboxamide] | 12.4 | 108 | 7.89 | 5.86 | –
4 | Cc1cc2nc(N)c3cncn3c2cc1C(=O)N(C)C1COCc2c1ccn1c(C(F)(F)F)cnc21 (stereo not shown) [Example 62, 4-Amino-N,7-dimethyl-N-(3-(trifluoromethyl)-7,10-dihydro-8H-imidazo[1,2-a]pyrano[3,4-c]pyridin-7-yl)imidazo[1,5-a]quinoxaline-8-carboxamide] | 12.5 | 113 | 8.14 | 6.09 | –
5 | Cc1cc2nc(N)c3cncn3c2cc1C(=O)N(C)[C@@H]1COCc2c1ccn1c(C(F)(F)F)cnc21 [Example 62-P1, (S)-4-amino-N,7-dimethyl-N-(3-(trifluoromethyl)-7,10-dihydro-8H-imidazo[1,2-a]pyrano[3,4-c]pyridin-7-yl)imidazo[1,5-a]quinoxaline-8-carboxamide] | 12.5 | – | – | – | AUC(0-inf) [4]: 1360 ng·h/mL; Cmax [4]: 441 ng/mL; MRT inf [4]: 4 h; Tmax [4]: 30 min; half-life [4]: 246 min
6 | CN(C(=O)c1ccc2nc(N)c3cnn(C)c3c2c1)C1COCc2c1ccn1c(C(F)(F)F)cnc21 (stereo not shown) [Example 83, 4-Amino-N,1-dimethyl-N-(3-(trifluoromethyl)-7,10-dihydro-8H-imidazo[1,2-a]pyrano[3,4-c]pyridin-7-yl)-1H-pyrazolo[4,3-c]quinoline-8-carboxamide] | 11.8 | 164 | 8.32 | 6.10 | –
7 | CNN(C(=O)c1cc2c(cc1F)nc(N)c1cncn12)C1COCc2nc(C(F)(F)F)ccc21 (stereo not shown) [Example 279, 4-Amino-7-fluoro-N'-methyl-N-[2-(trifluoromethyl)-6,8-dihydro-5H-pyrano[3,4-b]pyridin-5-yl]imidazo[1,5-a]quinoxaline-8-hydrazide] | 12.2 | – | – | – | AUC(0-inf) [4]: 729 ng·h/mL; Cmax [4]: 233 ng/mL; MRT inf [4]: 2.1 h; Tmax [4]: 30 min; half-life [4]: 60 min
8 | [2H]C([2H])([2H])NN(C(=O)c1cc2c3c(c(N)nc2cc1F)COC3)C1COCc2c1ccn1c(C(F)(F)F)cnc21 (stereo not shown) [Example 351, 4-Amino-7-fluoro-N'-(trideuteriomethyl)-N-(3-trifluoromethyl-7,10-dihydro-8H-imidazo [1,2-a]pyrano [3,4-c]pyridin-7-yl)-1,3-dihydrofuro [3,4-c] quinoline-8-carbohydrazide] | 12.6 | – | – | – | AUC(0-inf) [4]: 9660 ng·h/mL; Cmax [4]: 2330 ng/mL; MRT inf [4]: 3.3 h; Tmax [4]: 30 min; half-life [4]: 138 min
9 | CNN(C(=O)c1cc2c3c(c(N)nc2cn1)COC3)C1COc2cc(S(F)(F)(F)(F)F)ccc21 [Example 372, rel-(R)-4-amino-N'-methyl-N-(6-(pentafluoro-6-sulphanyl)-2,3-dihydrobenzofuran-3-yl)-1,3-dihydrofuro[3,4-c][1,7]naphthyridine-8-carbohydrazide] | 11.2 | – | – | – | –
10 | CNN(C(=O)c1cc2c(cn1)nc(N)c1cnn(C)c12)C1COc2cc(S(F)(F)(F)(F)F)ccc21 (stereo not shown) [Example 375, 4-Amino-N',1-dimethyl-N-(6-(pentafluoro-6-sulphanyl)-2,3-dihydrobenzofuran-3-yl)-1H-pyrazolo[4,3-c][1,7]naphthyridine-8-carbohydrazide] | 12.7 | – | – | – | –
11 | CNN(C(=O)c1cc2c(cn1)nc(N)c1cncn12)C1COCc2nc(S(F)(F)(F)(F)F)ccc21 (stereo not shown) [Example 387, 4-Amino-N'-methyl-N-(2-pentafluorosulphanyl-5,8-dihydro-6H-pyrano[3,4-b]pyridin-5-yl)imidazo[1,5-a]pyridone[3,4-e]pyrazoline-8-hydrazide] | 12.6 | – | – | – | –
12 | [2H]C([2H])([2H])NN(C(=O)c1ccc2nc(N)c3c(c2c1)COC3)C1COCc2c1ccn1c(C(F)(F)F)cnc21 (stereo not shown) [Example 392, 4-Amino-N'-(trideuteriomethyl)-N-(3-trifluoromethyl-7,10-dihydro-8H-imidazo [1,2-a]pyrano [3,4-c]pyridin-7-yl)-1,3-dihydrofuro [3,4-c] quinoline-8-carbohydrazide] | 10.4 | – | – | – | –
13 | [2H]C([2H])([2H])NN(C(=O)c1cc2c3c(c(N)nc2cc1Cl)COC3)C1COCc2c1ccn1c(C(F)(F)F)cnc21 (stereo not shown) [Example 394, 4-Amino-7-chloro-N'-(methyl-d3)-N-(3-(trifluoromethyl)-7,10-dihydro-8H-imidazo [1,2-a]pyrano [3,4-c]pyridin-7-yl)-1,3-dihydrofuro [3,4-c] quinoline-8-carbohydrazide] | 13.2 | – | – | – | –
14 | [2H]C([2H])([2H])NN(C(=O)c1cc2c(cc1Cl)nc(N)c1cnn(C)c12)C1COCc2c1ccn1c(C(F)(F)F)cnc21 (stereo not shown) [Example 435, 4-Amino-7-chloro-1-methyl-N'-(methyl-d3)-N-(3-(trifluoromethyl)-7,10-dihydro-8H-imidazo[1,2-a]pyrano[3,4-c]pyridin-7-yl)-1H-pyrazolo[4,3-c] quinoline-8-carbohydrazide] | 13.7 | – | – | – | –
15 | [2H]C([2H])([2H])NN(C(=O)c1ccc2nc(N)c3cnn(C)c3c2c1)[C@@H]1COCc2c1ccn1c(C(F)(F)F)cnc21 [Example 436-P1] | 11.9 | – | – | – | –
16 | CNN(C(=O)c1cc2c3c(c(N)nc2cn1)N=NC3C)C1COCc2c1ccn1c(C(F)(F)F)cnc21 (stereo not shown) [Example 444, 4-Amino-N',1-dimethyl-N-(3-(trifluoromethyl)-7,10-dihydro-8H-imidazo[1,2-a]pyrano[3,4-c]pyridin-7-yl)-1H-pyrazolo[3,4-c][1,7]naphthyridine-8-carbohydrazide] | 12.7 | – | – | – | –
